Assay results as given in patent US20220323443A1, “COMBINATION THERAPY FOR CANCER TREATMENT” (TAKEDA PHARMACEUTICAL COMPANY LIMITED, priority 2019, published 2022).

Legend:
[1] = system: homologous recombination (HR) repair in 293T cells; test: Homologous recombination (HR) repair assay, DR-GFP / I-SceI reporter, flow cytometry; type: cell-based, human; conditions: 300 nM Compound 1, 72 hours after transfection
Protocol: The efficiency of homologous recombination (HR) was assessed using an I-SceI expression plasmid (I-SceI) and an I-SceI repair reporter plasmid (DR-GFP) composed of two differentially mutated GFP genes, one of which contained a unique I-SceI restriction site (FIG. 1A). The assay works through gene conversion repair of a double strand break caused by I-SceI digestion. DR-GFP plasmids repaired by homologous recombination express GFP. Human embryonic kidney 293T cells were transfected with either 5 μg of DR-GFP plus 10 μg of I-SceI in presence (300 nM) or absence of Compound 1. Seventy-two hours after transfection, the cells were fixed with 4% paraformaldehyde for 20 min at room temperature, and the number of GFP-expressing cells was assessed by flow cytometry (FIGS. 1B and 1C).

[2] = system: COLO205 human colorectal adenocarcinoma xenografts; test: In vivo antitumor activity of Compound 1 and irradiation in nude mice; design: species or system mouse; conditions: Compound 1 40 mg/kg orally once daily Day 1-14 combined with irradiation 3 Gy on Day 1, 2, 3, 8, 9, 10
Protocol: Human colorectal carcinoma cell line, COLO205 xenograft model was established by subcutaneous injection of cell suspension (5×10^6 cells/100 μl/site, in 1:1 mixture of Hanks' balanced salt and BD Matrigel™ Matrix (BD biosciences)). Mice with tumor size of approximately 200 mm^3 were randomly assigned to dose groups on the day before start date of dosing (Day 0). Compound 1 was suspended in 0.5 w/v % methylcellulose and administered orally to mice at a dose of 40 mg/kg once daily on Day 1-14. Mice in irradiation groups were irradiated at a dose of 3 Gy daily on Day 1, 2, 3, 8, 9 and 10 under pentobarbital anesthesia. Tumors on the flanks of the mice were irradiated using an X-ray irradiator (MBR-1520R-3, Hitachi Power Solutions Co., Ltd., Ibaraki) and non-tumor part of mice were shielded by lead plate. Tumor size was measured by caliper and tumor volume was estimated using the equation V=(LW^2)/2, where L and W are tumor length and width, respectively and reported in cubic millimeters (FIG. 3).

H22 (Hepatoma) = test: In vivo combination study, syngeneic mouse tumor isograft model; conditions: note to Table 9; by note order: Anti-mCTLA-4 study in H22 (55 mm^3)
Protocol: (§1) To investigate in vivo antitumor activity of Compound 1 in combination with other agents, tests using Cell Derived Xenograft (CDX), Patient Derived Xenograft (PDX) and Syngeneic mouse tumor isograft model were conducted. Cells or Patient Derived Tumors were inoculated by one method of the following two methods (Method A and B) as shown Table 7.
(§2) Method A; Cells were maintained in either immune deficient nude mice or immune competent mice by subcutaneous inoculation of tumor cells at various concentrations into respected mice. Method B: Patient Derived Tumor s were maintained in nude mice by subcutaneous inoculation of tumor pieces (approx. 2×2×2 mm) into nude mice. Mice with tumor size of approximately 50 mm^3 (e.g., 40-75 mm^3) for syngeneic mouse studies or 200 mm^3 (e.g., 110-270 mm^3) for xenograft studies were randomly assigned to dose groups on the day (Day 0) before start date of dosing.
(§3) Compound 1 (crystalline form I) was suspended in 0.5 w/v % methylcellulose and administered orally to mice. Antibodies which administered in the experiment were described in Table 8.
(§4) Tumor size was measured by caliper and tumor volume was estimated using the equation V=(LW^2)/2, where L and W are tumor length and width, respectively and reported in cubic millimeters.
(§5) These values were compared across treatment groups to assess whether the differences in the trends over time were statistically significant. To compare pairs of treatment groups, the following mixed-effects linear regression model was fit to the data using the maximum likelihood method:
(§6) For synergy analyses, the observed differences in the log tumor values were used to calculate AUC values for each animal. In instances when an animal in a treatment group was removed from the study, the last observed tumor value was carried forward through all subsequent time points. The AUC for the control, or vehicle, group was calculated using the predicted values from the pairwise models described above. We defined a measure of synergy as follows:
(§7) where Ak and Bk are the k^th animal in the individual treatment groups and ABk is the k^th animal in combination treatment group. AUCcd is the model-predicted AUC for the control group and was treated as a constant with no variability. The standard error of the synergy score was calculated as the square root of the sum of squared standard errors across groups A, B, and AB. The degrees of freedom were estimated using the Welch-Satterthwaite equation. A hypothesis test was performed to determine if the synergy score differed from 0. P values were calculated by dividing the synergy score by its standard error and tested against a t-distribution (two-tailed) with the above-calculated degrees of freedom.
(§8) The effect was classified into four different categories. It was considered synergistic if the synergy score was less than 0 and additive if the synergy score wasn't statistically different from 0. If the synergy score was greater than zero, but the mean AUC for the combination was lower than the lowest mean AUC among the two single agent treatments, then the combination was sub-additive. If the synergy score was greater than zero, and the mean AUC for the combination was greater than the mean AUC for at least one of the single agent treatments, then the combination was antagonistic.

[3] = system: J558 mouse plasmacytoma tumors; test: as above; conditions: note to Table 9
Protocol: as §1, §2, §3, §4, §5, §6, §7, §8

JC (Breast) = test: as above; conditions: note to Table 9
Protocol: as §1, §2, §3, §4, §5, §6, §7, §8

Panc02 (Pancreatic) = test: as above; conditions: note to Table 9
Protocol: as §1, §2, §3, §4, §5, §6, §7, §8

B16F10 (Melanoma) = test: as above; conditions: note to Table 9

## Cc1[nH]ncc1-c1cc2nc([C@@H]3CC4CCN3CC4)[nH]c(=O)c2s1 [Compound 1, 2-[(2S)-1-azabicyclo[2.2.2]oct-2-yl]-6-(3-methyl-1H-pyrazol-4-yl)thieno[3,2-d]pyrimidin-4(3H)-one]
[1]
  HR repair activity (GFP-expressing cells): suppresses HR repair activity
[2]
  antitumor activity (tumor volume): strong antitumor activity and enhanced antitumor efficacy compared to either single treatment alone
H22 (Hepatoma)
  CR per group: 0
[3]; by note order: Anti-mCTLA-4 study in J558 (30 mm^3)
  CR per group: 2
[3]; by note order: Anti-mPD-1 study in J558 (30 mm^3)
  CR per group: 2
[3]; by note order: Anti-mPD-L1 study in J558 (30 mm^3)
  CR per group: 2
JC (Breast); by note order: Anti-mCTLA-4 study in JC (60 mm^3)
  CR per group: 0 CR in CTLA-4 group and 0 CR in Compound 1 group, and 0 CR in Compound 1/CTLA-4 combo group
JC (Breast); by note order: Anti-mPD-1 study in JC (60 mm^3)
  CR per group: 0 CR in PD-1 group and 0 CR in Compound 1 group, and 0 CR in Compound 1/PD-1 combo group
Panc02 (Pancreatic); by note order: Anti-mPD-1 study in Panc02 (75 mm^3)
  CR per group: 0 CR in PD-1 group and 0 CR in Compound 1 group, and 0 CR in Compound 1/PD-1 combo group
Panc02 (Pancreatic); by note order: Gemcitabine study in Panc02 (75 mm^3)
  CR per group: 0 CR in Gemcitabine group and 0 CR in Compound 1 group, and 0 CR in Compound 1/Gemcitabine combo group
B16F10 (Melanoma); by note order: Anti-mPD-1 study in B16F10 (67 mm^3)
  CR per group: 0 CR in PD-1 group and 0 CR in Compound 1 group, and 0 CR in Compound 1/PD-1 combo group
B16F10 (Melanoma); by note order: NKTR-214 + anti-mPD-1 study in B16F10 (67 mm^3)
  CR per group: 0 CR in NKTR-214 + PD-1 group, and 0 CR in Compound 1 group, and 0 CR in Compound 1/NKTR-214/PD-1 triple combo group
B16F10 (Melanoma); by note order: NKTR-214 study in B16F10 (67 mm^3)
  CR per group: no CR
